Assay results reported in patent publication US20120028888A1, “APJ RECEPTOR COMPOUNDS” (priority 2008, published 2012).
Residues, ends and D or L forms follow the SMILES beside them. *: point of attachment. Palmitoyl = CCCCCCCCCCCCCCCC(=O)*; X1 = CCCCCCCCCCCOCCCC(=O)*

target: T1, Gi-coupled receptor APJ (HEK cells stably expressing the APJ receptor) (Homo sapiens, UniProt P35414); experiment: HTRF cAMP assay: inhibition of NKH477 stimulated increase in cAMP; format: cell-based; details: read-out: EC50 value (nM), SEM
T1 construct: expressed in transfected cells; host or cells: HEK cells stably expressing APJ
T1 sequence (P35414 1-380): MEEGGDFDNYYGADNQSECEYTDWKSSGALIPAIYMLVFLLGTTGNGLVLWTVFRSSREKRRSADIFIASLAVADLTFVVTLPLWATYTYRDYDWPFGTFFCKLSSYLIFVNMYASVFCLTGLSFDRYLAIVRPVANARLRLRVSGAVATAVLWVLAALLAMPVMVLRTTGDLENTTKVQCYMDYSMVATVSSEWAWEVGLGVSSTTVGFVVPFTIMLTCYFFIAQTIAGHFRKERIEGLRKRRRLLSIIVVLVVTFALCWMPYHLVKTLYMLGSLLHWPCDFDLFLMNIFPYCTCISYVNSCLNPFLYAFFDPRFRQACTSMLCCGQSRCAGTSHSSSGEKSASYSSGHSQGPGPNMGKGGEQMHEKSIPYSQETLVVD
From the text: HTRF (homogeneous time resolved fluorescence) is a technology developed by Cisbio Bioassays based on TR-FRET (time-resolved fluorescence resonance energy transfer). Cisbio Bioassays has developed a wide selection of HTRF-based assays compatible with whole cells, thereby enabling functional assays to run under more physiological conditions. The IP-One assays are competitive immunoassays using cryptate-labeled anti-IPI monoclonal antibody and d2-labeled IP1. IP1 is a relatively stable downstream metabolite of IP3, and accumulates in cells following Gq receptor activation.
cAMP kits based on a competitive immunoassay using cryptate-labeled anti-cAMP antibody and d2-labeled cAMP were used to assay the effects of APJ compounds of the present invention. This assay measures the increase in intracellular cAMP upon Gs-coupled receptor activation as well as decrease in forskolin (or a more soluble version of forskolin—NKH477) stimulated increase in cAMP upon Gi-coupled receptor activation.

Row | Compound | EC50 [nM]
1 | CCCCCCCCCCCCCCCC(=O)N[C@@H](Cc1ccccc1)C(=O)N[C@@H](CCCNC(=N)N)C(=O)N[C@@H](CO)C(=O)N[C@@H](CO)C(=O)N[C@@H](CCCNC(=N)N)C(=O)N[C@@H](CCC(=O)O)C(=O)N[C@@H](CCCCN)C(=O)N[C@@H](CCCNC(=N)N)C(=O)N[C@@H](CCCNC(=N)N)C(=O)N[C@@H](CO)C(=O)N[C@@H](C)C(=O)N[C@@H](CC(=O)O)C(=O)N[C@H](C(=O)N[C@@H](Cc1ccccc1)C(=O)N[C@H](C(N)=O)[C@@H](C)CC)[C@@H](C)CC [Compound 11] (Palmitoyl-FRSSREKRRSADIFI-NH2) | 1 to 500
2 | CCCCCCCCCCCCCCCC(=O)N[C@H](C(=O)N[C@@H](C)C(=O)N[C@@H](Cc1ccccc1)C(=O)N[C@@H](CCCNC(=N)N)C(=O)N[C@@H](CO)C(=O)N[C@@H](CO)C(=O)N[C@@H](CCCNC(=N)N)C(=O)N[C@@H](CCC(=O)O)C(=O)N[C@@H](CCCCN)C(=O)N[C@@H](CCCNC(=N)N)C(=O)N[C@@H](CCCNC(=N)N)C(=O)N[C@@H](CO)C(=O)N[C@@H](C)C(=O)N[C@@H](CC(=O)O)C(=O)N[C@H](C(=O)N[C@@H](Cc1ccccc1)C(=O)N[C@H](C(N)=O)[C@@H](C)CC)[C@@H](C)CC)[C@@H](C)O [Compound 22] (Palmitoyl-TAFRSSREKRRSADIFI-NH2) | 1 to 500
3 | CCCCCCCCCCCCCCCC(=O)N[C@H](C(=O)N[C@H](C(=O)N[C@@H](Cc1ccccc1)C(=O)N[C@@H](C)C(=O)N[C@@H](CO)C(=O)N[C@@H](CO)C(=O)N[C@@H](CCCNC(=N)N)C(=O)N[C@@H](CCC(=O)O)C(=O)N[C@@H](CCCCN)C(=O)N[C@@H](CCCNC(=N)N)C(=O)N[C@@H](CCCNC(=N)N)C(=O)N[C@@H](CO)C(=O)N[C@@H](C)C(=O)N[C@@H](CC(=O)O)C(=O)N[C@H](C(=O)N[C@@H](Cc1ccccc1)C(=O)N[C@H](C(N)=O)[C@@H](C)CC)[C@@H](C)CC)C(C)C)[C@@H](C)O [Compound 24] (Palmitoyl-TVFASSREKRRSADIFI-NH2) | 1000 to 5000
4 | CCCCCCCCCCCCCCCC(=O)N[C@H](C(=O)N[C@@H](CO)C(=O)N[C@@H](CO)C(=O)N[C@@H](CCCNC(=N)N)C(=O)N[C@@H](CCC(=O)O)C(=O)N[C@@H](CCCCN)C(=O)N[C@@H](CCCNC(=N)N)C(=O)N[C@@H](CCCNC(=N)N)C(=O)N[C@@H](CO)C(=O)N[C@@H](C)C(=O)N[C@@H](CC(=O)O)C(=O)N[C@H](C(=O)N[C@@H](Cc1ccccc1)C(=O)N[C@H](C(N)=O)[C@@H](C)CC)[C@@H](C)CC)C(C)C [Compound 25] (Palmitoyl-VSSREKRRSADIFI-NH2) | 1000 to 5000
5 | CCCCCCCCCCCCCCCC(=O)N[C@H](C(=O)N[C@H](C(=O)N[C@@H](Cc1ccccc1)C(=O)N[C@@H](CCCNC(=N)N)C(=O)N[C@@H](C)C(=O)N[C@@H](CO)C(=O)N[C@@H](CCCNC(=N)N)C(=O)N[C@@H](CCC(=O)O)C(=O)N[C@@H](CCCCN)C(=O)N[C@@H](CCCNC(=N)N)C(=O)N[C@@H](CCCNC(=N)N)C(=O)N[C@@H](CO)C(=O)N[C@@H](C)C(=O)N[C@@H](CC(=O)O)C(=O)N[C@H](C(=O)N[C@@H](Cc1ccccc1)C(=O)N[C@H](C(N)=O)[C@@H](C)CC)[C@@H](C)CC)C(C)C)[C@@H](C)O [Compound 27] (Palmitoyl-TVFRASREKRRSADIFI-NH2) | 501 to 1000
6 | CCCCCCCCCCCCCCCC(=O)N[C@H](C(=O)N[C@H](C(=O)N[C@@H](Cc1ccccc1)C(=O)N[C@@H](CCCNC(=N)N)C(=O)N[C@@H](CO)C(=O)N[C@@H](C)C(=O)N[C@@H](CCCNC(=N)N)C(=O)N[C@@H](CCC(=O)O)C(=O)N[C@@H](CCCCN)C(=O)N[C@@H](CCCNC(=N)N)C(=O)N[C@@H](CCCNC(=N)N)C(=O)N[C@@H](CO)C(=O)N[C@@H](C)C(=O)N[C@@H](CC(=O)O)C(=O)N[C@H](C(=O)N[C@@H](Cc1ccccc1)C(=O)N[C@H](C(N)=O)[C@@H](C)CC)[C@@H](C)CC)C(C)C)[C@@H](C)O [Compound 28] (Palmitoyl-TVFRSAREKRRSADIFI-NH2) | 1 to 500
7 | CCCCCCCCCCCCCCCC(=O)N[C@H](C(=O)N[C@H](C(=O)N[C@@H](Cc1ccccc1)C(=O)N[C@@H](CCCNC(=N)N)C(=O)N[C@@H](CO)C(=O)N[C@@H](CO)C(=O)N[C@@H](CCCNC(=N)N)C(=O)N[C@@H](CCC(=O)O)C(=O)N[C@@H](CCCCN)C(=O)N[C@@H](CCCNC(=N)N)C(=O)N[C@@H](CCCNC(=N)N)C(=O)N[C@@H](C)C(=O)N[C@@H](C)C(=O)N[C@@H](CC(=O)O)C(=O)N[C@H](C(=O)N[C@@H](Cc1ccccc1)C(=O)N[C@H](C(N)=O)[C@@H](C)CC)[C@@H](C)CC)C(C)C)[C@@H](C)O [Compound 32] (Palmitoyl-TVFRSSREKRRAADIFI-NH2) | 1 to 500
8 | CCCCCCCCCCCCCCCC(=O)N[C@@H](CO)C(=O)N[C@@H](CO)C(=O)N[C@@H](CCCNC(=N)N)C(=O)N[C@@H](CCC(=O)O)C(=O)N[C@@H](CCCCN)C(=O)N[C@@H](CCCNC(=N)N)C(=O)N[C@@H](CCCNC(=N)N)C(=O)N[C@@H](CO)C(=O)N[C@@H](C)C(=O)N[C@@H](CC(=O)O)C(=O)N[C@H](C(=O)N[C@@H](Cc1ccccc1)C(=O)N[C@H](C(=O)N[C@@H](C)C(N)=O)[C@@H](C)CC)[C@@H](C)CC [Compound 33] (Palmitoyl-SSREKRRSADIFIA-NH2) | > 10000
9 | CCCCCCCCCCCCCCCC(=O)N[C@H](C(=O)N[C@H](C(=O)N[C@@H](Cc1ccccc1)C(=O)N[C@@H](Cc1c[nH]c2ccccc12)C(=O)N[C@@H](CO)C(=O)N[C@@H](CO)C(=O)N[C@@H](CCCNC(=N)N)C(=O)N[C@@H](CCC(=O)O)C(=O)N[C@@H](CCCCN)C(=O)N[C@@H](CCCNC(=N)N)C(=O)N[C@@H](CCCNC(=N)N)C(=O)N[C@@H](CO)C(=O)N[C@@H](C)C(=O)N[C@@H](CC(=O)O)C(=O)N[C@H](C(=O)N[C@@H](Cc1ccccc1)C(=O)N[C@H](C(N)=O)[C@@H](C)CC)[C@@H](C)CC)C(C)C)[C@@H](C)O [Compound 36] (Palmitoyl-TVFWSSREKRRSADIFI-NH2) | 1000 to 5000
10 | CCCCCCCCCCCCCCCC(=O)N[C@H](C(=O)N[C@H](C(=O)N[C@@H](Cc1ccccc1)C(=O)N[C@@H](CCCNC(=N)N)C(=O)N[C@@H](CO)C(=O)N[C@@H](CO)C(=O)N[C@@H](CCCNC(=N)N)C(=O)N[C@@H](CCC(=O)O)C(=O)N[C@@H](CCCCN)C(=O)N[C@@H](CCCNC(=N)N)C(=O)N[C@@H](CCCNC(=N)N)C(=O)N[C@@H](CO)C(=O)N[C@@H](C)C(=O)N[C@@H](CC(=O)O)C(=O)N[C@H](C(=O)N[C@@H](C)C(=O)N[C@H](C(N)=O)[C@@H](C)CC)[C@@H](C)CC)C(C)C)[C@@H](C)O [Compound 39] (Palmitoyl-TVFRSSREKRRSADIAI-NH2) | 1 to 500
11 | CCCCCCCCCCCCCCCC(=O)N[C@H](C(=O)N[C@H](C(=O)N[C@@H](Cc1ccccc1)C(=O)N[C@@H](CCCNC(=N)N)C(=O)N[C@@H](CO)C(=O)N[C@@H](CO)C(=O)N[C@@H](CCCNC(=N)N)C(=O)N[C@@H](CCC(=O)O)C(=O)N[C@@H](CCCCN)C(=O)N[C@@H](CCCNC(=N)N)C(=O)N[C@@H](CCCNC(=N)N)C(=O)N[C@@H](CO)C(=O)N[C@@H](C)C(=O)N[C@@H](CC(=O)O)C(=O)N[C@H](C(=O)N[C@@H](Cc1ccccc1)C(=O)N[C@@H](C)C(N)=O)[C@@H](C)CC)C(C)C)[C@@H](C)O [Compound 40] (Palmitoyl-TVFRSSREKRRSADIFA-NH2) | 501 to 1000
12 | CCCCCCCCCCCCCCCC(=O)N[C@H](C(=O)N[C@H](C(=O)N[C@@H](Cc1ccccc1)C(=O)N[C@@H](CCCNC(=N)N)C(=O)N[C@@H](CO)C(=O)N[C@@H](CO)C(=O)N[C@@H](CCCNC(=N)N)C(=O)N[C@@H](C)C(=O)N[C@@H](CCCCN)C(=O)N[C@@H](CCCNC(=N)N)C(=O)N[C@@H](CCCNC(=N)N)C(=O)N[C@@H](CO)C(=O)N[C@@H](C)C(=O)N[C@@H](CC(=O)O)C(=O)N[C@H](C(=O)N[C@@H](Cc1ccccc1)C(=O)N[C@H](C(N)=O)[C@@H](C)CC)[C@@H](C)CC)C(C)C)[C@@H](C)O [Compound 41] (Palmitoyl-TVFRSSRAKRRSADIFI-NH2) | 1 to 500
13 | CCCCCCCCCCCCCCCC(=O)N[C@H](C(=O)N[C@H](C(=O)N[C@@H](Cc1ccccc1)C(=O)N[C@@H](CCCNC(=N)N)C(=O)N[C@@H](CO)C(=O)N[C@@H](CO)C(=O)N[C@@H](CCCNC(=N)N)C(=O)N[C@@H](CCC(=O)O)C(=O)N[C@@H](CCCCN)C(=O)N[C@@H](CCCNC(=N)N)C(=O)N[C@@H](CCCNC(=N)N)C(=O)N[C@@H](CO)C(=O)N[C@@H](C)C(=O)N[C@@H](CC(=O)O)C(=O)N[C@H](C(=O)N[C@@H](Cc1ccccc1)C(=O)N[C@H](C(=O)O)[C@@H](C)CC)[C@@H](C)CC)C(C)C)[C@@H](C)O [Compound 42] (Palmitoyl-TVFRSSREKRRSADIFI-OH) | 1000 to 5000
14 | CCCCCCCCCCCOCCCC(=O)N[C@H](C(=O)N[C@H](C(=O)N[C@@H](Cc1ccccc1)C(=O)N[C@@H](CCCNC(=N)N)C(=O)N[C@@H](CO)C(=O)N[C@@H](CO)C(=O)N[C@@H](CCCNC(=N)N)C(=O)N[C@@H](CCC(=O)O)C(=O)N[C@@H](CCCCN)C(=O)N[C@@H](CCCNC(=N)N)C(=O)N[C@@H](CCCNC(=N)N)C(=O)N[C@@H](CO)C(=O)N[C@@H](C)C(=O)N[C@@H](CC(=O)O)C(=O)N[C@H](C(=O)N[C@@H](Cc1ccccc1)C(=O)N[C@H](C(N)=O)[C@@H](C)CC)[C@@H](C)CC)C(C)C)[C@@H](C)O [Compound 60] (X1-TVFRSSREKRRSADIFI-NH2) | 1 to 500
